Results from the CheMixHub ionic liquid set.

Test: xn = mol fraction of the nth substance listed
Conditions: 298.15 K, 101 kPa

CCCCCCCCn1cc[n+](C)c1.[Cl-] + CCO + O
Conditions | viscosity [mPa·s]
x2 = 0.0467, x3 = 0.9348 | 2.514
x2 = 0.0558, x3 = 0.9143 | 3.908
x2 = 0.0679, x3 = 0.8854 | 7.008
x2 = 0.0766, x3 = 0.8576 | 10.5
x2 = 0.0826, x3 = 0.91 | 2.007
x2 = 0.0929, x3 = 0.8165 | 13.64
x2 = 0.0962, x3 = 0.8862 | 2.748
x2 = 0.0984, x3 = 0.1869 | 2330
x2 = 0.1218, x3 = 0.7443 | 18.9
x2 = 0.1329, x3 = 0.8601 | 2.881
x2 = 0.1594, x3 = 0.6721 | 21.9
x2 = 0.1807, x3 = 0.7375 | 7.695
x2 = 0.1867, x3 = 0.7875 | 3.207
x2 = 0.1968, x3 = 0.1665 | 855
x2 = 0.2008, x3 = 0.4721 | 68.1
x2 = 0.2008, x3 = 0.7927 | 2.822
x2 = 0.2235, x3 = 0.6582 | 10.37
x2 = 0.2254, x3 = 0.7596 | 2.603
x2 = 0.2604, x3 = 0.7162 | 3.164
x2 = 0.2624, x3 = 0.3089 | 119.1
x2 = 0.2733, x3 = 0.7208 | 2.591
x2 = 0.2777, x3 = 0.4267 | 41.41
x2 = 0.2833, x3 = 0.1486 | 402
x2 = 0.2958, x3 = 0.669 | 3.56
x2 = 0.3057, x3 = 0.6808 | 2.662
x2 = 0.3069, x3 = 0.6239 | 5.009
x2 = 0.3218, x3 = 0.5748 | 7.072
x2 = 0.3263, x3 = 0.5386 | 9.47
x2 = 0.3335, x3 = 0.6189 | 3.791
x2 = 0.3386, x3 = 0.6405 | 2.729
x2 = 0.3599, x3 = 0.268 | 58.73
x2 = 0.3651, x3 = 0.6297 | 2.282
x2 = 0.366, x3 = 0.5069 | 8.153
x2 = 0.3714, x3 = 0.5658 | 4.285
x2 = 0.3806, x3 = 0.3659 | 24.18
x2 = 0.3954, x3 = 0.5743 | 2.873
x2 = 0.4166, x3 = 0.5418 | 3.353
x2 = 0.4363, x3 = 0.4778 | 4.956
x2 = 0.4432, x3 = 0.2332 | 33.75
x2 = 0.4437, x3 = 0.5387 | 2.553
x2 = 0.4443, x3 = 0.5002 | 3.63
x2 = 0.4617, x3 = 0.4303 | 5.846
x2 = 0.5079, x3 = 0.2907 | 11.59
x2 = 0.532, x3 = 0.3966 | 3.823
x2 = 0.5377, x3 = 0.4533 | 1.472
x2 = 0.544, x3 = 0.4234 | 2.522
x2 = 0.5558, x3 = 0.186 | 16.16
x2 = 0.5841, x3 = 0.3951 | 2.156
x2 = 0.5878, x3 = 0.3295 | 3.918
x2 = 0.6004, x3 = 0.2361 | 7.378
x2 = 0.6077, x3 = 0.3891 | 1.864
x2 = 0.6374, x3 = 0.3073 | 2.912
x2 = 0.6743, x3 = 0.2932 | 2.278
x2 = 0.6985, x3 = 0.0625 | 11.08
x2 = 0.6991, x3 = 0.1777 | 4.71
x2 = 0.7005, x3 = 0.2845 | 1.923
x2 = 0.7599, x3 = 0.1919 | 2.375
x2 = 0.7937, x3 = 0.0428 | 5.553
x2 = 0.7997, x3 = 0.1184 | 2.964
x2 = 0.847, x3 = 0.1454 | 1.508
